{"source": "PubChem BioAssay AID330", "about": "(DTP/NCI, 2004)", "system": "P388 leukemia ip, CD2F1 mice, survival T/C", "test": "NCI In Vivo Anticancer Drug Screen. Data for tumor model P388 Leukemia (intraperitoneal) in CD2F1 (CDF1) mice", "details": "endpoint: median survival time, higher = longer survival", "summary_of_the_method": "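Mice carrying the transplanted tumor received test compound or vehicle. Survival was recorded in each group, and the value is the treated-group measurement divided by that of the vehicle-treated control group.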", "key": {"[1]": {"details": "dose: 50.0 mg/kg/injection, schedule: Q01DX005 (ip), vehicle: Klucel (hydroxypropylcellulose) (HPC)"}, "[2]": {"details": "dose: 100.0 mg/kg/injection, schedule: Q01DX005 (ip), vehicle: Klucel (hydroxypropylcellulose) (HPC)"}, "[3]": {"details": "dose: 200.0 mg/kg/injection, schedule: Q01DX005 (ip), vehicle: Klucel (hydroxypropylcellulose) (HPC)"}, "[4]": {"details": "dose: 15.0 mg/kg/injection, schedule: Q01DX005 (ip), vehicle: saline with Tween-80"}, "[5]": {"details": "dose: 30.0 mg/kg/injection, schedule: Q01DX005 (ip), vehicle: saline with Tween-80"}, "[6]": {"details": "dose: 60.0 mg/kg/injection, schedule: Q01DX005 (ip), vehicle: saline with Tween-80"}, "[7]": {"details": "dose: 120.0 mg/kg/injection, schedule: Q01DX005 (ip), vehicle: saline with Tween-80"}, "[8]": {"details": "dose: 240.0 mg/kg/injection, schedule: Q01DX005 (ip), vehicle: saline with Tween-80"}}, "note": "Where “and” joins values, the source holds several entries; their conditions need not be identical. Equal entries are not always repeated. Inconclusive results and toxic doses are left out.", "data": [{"smiles": "O=c1oc2ccc(Cl)cc2c(=O)n1-c1cc(Cl)ccc1[N+](=O)[O-]", "values": [{"measurement": "T/C", "setting": "dose: 50.0 mg/kg/injection, schedule: Q01DX005 (ip), vehicle: saline", "result": "100 % of control"}, {"measurement": "T/C", "setting": "dose: 100.0 mg/kg/injection, schedule: Q01DX005 (ip), vehicle: saline", "result": "99 % of control"}, {"measurement": "T/C", "setting": "dose: 200.0 mg/kg/injection, schedule: Q01DX005 (ip), vehicle: saline", "result": "104 % of control"}]}, {"smiles": "O=C1NC(=O)C(CCCCCl)N1", "note": "(stereo not drawn)", "values": [{"measurement": "T/C", "setting": "[1]", "result": "100 % of control"}, {"measurement": "T/C", "setting": "[2]", "result": "102 % of control"}, {"measurement": "T/C", "setting": "[3]", "result": "98 % of control"}]}, {"smiles": "CSc1nc(SC)c2nc(SC)sc2n1", "values": [{"measurement": "T/C", "setting": "dose: 50.0 mg/kg/injection, schedule: Q01DX001 (ip), vehicle: saline with Tween-80", "result": "90 % of control"}, {"measurement": "T/C", "setting": "dose: 100.0 mg/kg/injection, schedule: Q01DX001 (ip), vehicle: saline with Tween-80", "result": "88 % of control and 90 % of control"}, {"measurement": "T/C", "setting": "dose: 200.0 mg/kg/injection, schedule: Q01DX001 (ip), vehicle: saline with Tween-80", "result": "90 % of control"}, {"measurement": "T/C", "setting": "dose: 400.0 mg/kg/injection, schedule: Q01DX001 (ip), vehicle: saline with Tween-80", "result": "87 % of control"}]}, {"smiles": "CP(=O)(OCCOCCOP(C)(=O)c1ccccc1)c1ccccc1", "note": "(stereo not drawn)", "values": [{"measurement": "T/C", "setting": "[1]", "result": "98 % of control"}, {"measurement": "T/C", "setting": "[2]", "result": "103 % of control"}, {"measurement": "T/C", "setting": "[3]", "result": "101 % of control"}]}, {"smiles": "Cc1no[n+]([O-])c1NC(=O)OCc1ccccc1", "values": [{"measurement": "T/C", "setting": "dose: 7.5 mg/kg/injection, schedule: Q01DX005 (ip), vehicle: saline with Tween-80", "result": "96 % of control"}, {"measurement": "T/C", "setting": "[4]", "result": "100 % of control"}, {"measurement": "T/C", "setting": "[5]", "result": "99 % of control"}, {"measurement": "T/C", "setting": "[6]", "result": "107 % of control"}, {"measurement": "T/C", "setting": "[7]", "result": "101 % of control"}, {"measurement": "T/C", "setting": "[8]", "result": "100 % of control"}]}, {"smiles": "C/C(=N\\Nc1ccc([N+](=O)[O-])cc1[N+](=O)[O-])c1ccc[nH]1", "values": [{"measurement": "T/C", "setting": "[4]", "result": "96 % of control"}, {"measurement": "T/C", "setting": "[5]", "result": "87 % of control"}, {"measurement": "T/C", "setting": "[6]", "result": "89 % of control"}]}, {"smiles": "CC(C)NC(=O)OCc1c(COC(=O)NC(C)C)c(-c2ccc(F)cc2F)n2c1CCC2", "values": [{"measurement": "T/C", "setting": "dose: 3.13 mg/kg/injection, schedule: Q01DX009 (ip), vehicle: distilled water + Tween-80", "result": "168 % of control"}, {"measurement": "T/C", "setting": "dose: 6.25 mg/kg/injection, schedule: Q01DX009 (ip), vehicle: distilled water + Tween-80", "result": "158 % of control and 162 % of control"}, {"measurement": "T/C", "setting": "dose: 12.5 mg/kg/injection, schedule: Q01DX009 (ip), vehicle: distilled water + Tween-80", "result": "174 % of control and 180 % of control"}, {"measurement": "T/C", "setting": "dose: 25.0 mg/kg/injection, schedule: Q01DX009 (ip), vehicle: distilled water + Tween-80", "result": "99 % of control"}]}, {"smiles": "CCCCCCCCCCCCn1ccnc1", "values": [{"measurement": "T/C", "setting": "dose: 100.0 mg/kg/injection, schedule: Q04DX003 (ip), vehicle: saline with Tween-80", "result": "102 % of control"}, {"measurement": "T/C", "setting": "dose: 200.0 mg/kg/injection, schedule: Q04DX003 (ip), vehicle: saline with Tween-80", "result": "97 % of control"}]}, {"smiles": "CC1(C)N=C(N)N=C(N)N1c1ccccc1", "values": [{"measurement": "T/C", "setting": "dose: 25.0 mg/kg/injection, schedule: Q04DX003 (ip), vehicle: saline", "result": "104 % of control"}, {"measurement": "T/C", "setting": "dose: 50.0 mg/kg/injection, schedule: Q04DX003 (ip), vehicle: saline", "result": "112 % of control"}]}, {"smiles": "O=C1c2ccccc2C(=O)c2c1cccc2N1C(=O)C=CC1=O", "values": [{"measurement": "T/C", "setting": "[6]", "result": "101 % of control"}, {"measurement": "T/C", "setting": "[7]", "result": "95 % of control"}, {"measurement": "T/C", "setting": "[8]", "result": "93 % of control"}]}, {"smiles": "CN(O)C(=O)CNC(=O)OC(C)(C)C", "values": [{"measurement": "T/C", "setting": "dose: 50.0 mg/kg/injection, schedule: Q01DX005 (ip), vehicle: saline with Tween-80", "result": "100 % of control"}, {"measurement": "T/C", "setting": "dose: 100.0 mg/kg/injection, schedule: Q01DX005 (ip), vehicle: saline with Tween-80", "result": "98 % of control"}, {"measurement": "T/C", "setting": "dose: 200.0 mg/kg/injection, schedule: Q01DX005 (ip), vehicle: saline with Tween-80", "result": "100 % of control"}, {"measurement": "T/C", "setting": "dose: 400.0 mg/kg/injection, schedule: Q01DX005 (ip), vehicle: saline with Tween-80", "result": "105 % of control"}]}, {"smiles": "[Ni+2].[O-]c1ccccc1C=NCCCCCCN=Cc1ccccc1[O-]", "values": [{"measurement": "T/C", "setting": "dose: 50.0 mg/kg/injection, schedule: Q04DX002 (ip), vehicle: saline with Tween-80", "result": "94 % of control"}, {"measurement": "T/C", "setting": "dose: 100.0 mg/kg/injection, schedule: Q04DX002 (ip), vehicle: saline with Tween-80", "result": "93 % of control"}, {"measurement": "T/C", "setting": "dose: 200.0 mg/kg/injection, schedule: Q04DX002 (ip), vehicle: saline with Tween-80", "result": "93 % of control"}]}, {"smiles": "CN(C)c1ccc(/C=C/c2ccnc3ccccc23)cc1Cl", "values": [{"measurement": "T/C", "setting": "dose: 12.5 mg/kg/injection, schedule: Q04DX003 (ip), vehicle: saline with Tween-80", "result": "105 % of control"}, {"measurement": "T/C", "setting": "dose: 25.0 mg/kg/injection, schedule: Q04DX003 (ip), vehicle: saline with Tween-80", "result": "96 % of control"}, {"measurement": "T/C", "setting": "dose: 50.0 mg/kg/injection, schedule: Q04DX003 (ip), vehicle: saline with Tween-80", "result": "95 % of control"}]}]}
